Results from ChEMBL document CHEMBL4725332, “The design of a novel near-infrared fluorescent HDAC inhibitor and image of tumor cells” (Bioorg Med Chem, 2020).
Active and inactive are the calls of the source. The calls are words filed in the database; no cut-off is given here.

How the values were obtained:
[1] = Absorption property of the compound assessed as maximum absorption wavelength at 5 uM under pH condition 7.4 by fluorescence spectrophotometric method; format: physicochemical
[2] = Emission property of the compound assessed as maximum wavelength at 5 uM under pH condition 7.4 at excitation wavelength by fluorescence spectrophotometric method; format: physicochemical
[3] = Emission property of the compound assessed as fluorescence at 5 uM under acidic condition at pH 4 by fluorescence spectrophotometric method; format: physicochemical; details: pH 4, 5 µM
Histone deacetylase 1 = Histone deacetylase 1 (Homo sapiens, UniProt Q13547); test: Inhibition of human recombinant HDAC1 expressed in baculovirus infected High5 insect cells using Ac-Lys-Tyr-Lys(e-acetyl)-AMC as substrate incubated for 24 hrs measured after 30 mins by microplate reader based spectrophotometric analysis; design: species or system BTI-TN-5B1-4
Histone deacetylase 1, sequence (Q13547 whole entry): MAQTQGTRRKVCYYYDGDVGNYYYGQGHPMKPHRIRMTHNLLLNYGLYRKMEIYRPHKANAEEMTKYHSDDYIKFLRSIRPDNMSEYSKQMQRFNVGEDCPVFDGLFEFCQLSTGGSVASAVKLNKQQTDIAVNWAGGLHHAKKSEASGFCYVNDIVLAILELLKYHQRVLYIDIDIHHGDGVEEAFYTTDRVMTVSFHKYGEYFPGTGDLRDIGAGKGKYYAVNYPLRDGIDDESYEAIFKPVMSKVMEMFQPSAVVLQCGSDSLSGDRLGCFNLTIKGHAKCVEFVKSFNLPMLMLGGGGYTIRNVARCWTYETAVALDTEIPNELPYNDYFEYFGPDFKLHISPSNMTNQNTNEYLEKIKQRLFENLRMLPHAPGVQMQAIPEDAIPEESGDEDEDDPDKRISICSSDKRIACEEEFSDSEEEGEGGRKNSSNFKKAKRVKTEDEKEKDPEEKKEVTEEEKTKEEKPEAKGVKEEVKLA

Histone deacetylase 3 = Histone deacetylase 3 (Homo sapiens, UniProt O15379); test: Inhibition of human recombinant HDAC3 expressed in baculovirus infected High5 insect cells using Ac-Lys-Tyr-Lys(e-acetyl)-AMC as substrate incubated for 24 hrs measured after 30 mins by microplate reader based spectrophotometric analysis; design: species or system BTI-TN-5B1-4
Histone deacetylase 3, sequence (O15379 whole entry): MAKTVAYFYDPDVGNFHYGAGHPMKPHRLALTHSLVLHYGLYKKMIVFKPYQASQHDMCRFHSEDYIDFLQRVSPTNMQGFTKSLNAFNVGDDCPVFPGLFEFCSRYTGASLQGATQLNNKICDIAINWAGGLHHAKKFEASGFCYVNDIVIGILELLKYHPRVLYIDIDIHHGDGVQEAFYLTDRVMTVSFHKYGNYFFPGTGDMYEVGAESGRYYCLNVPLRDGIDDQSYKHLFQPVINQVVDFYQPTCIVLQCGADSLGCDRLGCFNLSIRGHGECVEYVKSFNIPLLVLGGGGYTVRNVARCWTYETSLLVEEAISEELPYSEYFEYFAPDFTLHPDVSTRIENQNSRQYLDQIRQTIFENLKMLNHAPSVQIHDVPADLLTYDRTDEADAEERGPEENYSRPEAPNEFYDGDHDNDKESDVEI

[4] = target: T1, Protein deacetylase HDAC6 (Homo sapiens, UniProt Q9UBN7); test: Inhibition of human recombinant HDAC6 expressed in baculovirus infected High5 insect cells using Boc-Lys(eacety1)-AMC as substrate incubated for 3 hrs measured after 30 mins by microplate reader based spectrophotometric analysis; design: species or system BTI-TN-5B1-4
T1 sequence (Q9UBN7 whole entry): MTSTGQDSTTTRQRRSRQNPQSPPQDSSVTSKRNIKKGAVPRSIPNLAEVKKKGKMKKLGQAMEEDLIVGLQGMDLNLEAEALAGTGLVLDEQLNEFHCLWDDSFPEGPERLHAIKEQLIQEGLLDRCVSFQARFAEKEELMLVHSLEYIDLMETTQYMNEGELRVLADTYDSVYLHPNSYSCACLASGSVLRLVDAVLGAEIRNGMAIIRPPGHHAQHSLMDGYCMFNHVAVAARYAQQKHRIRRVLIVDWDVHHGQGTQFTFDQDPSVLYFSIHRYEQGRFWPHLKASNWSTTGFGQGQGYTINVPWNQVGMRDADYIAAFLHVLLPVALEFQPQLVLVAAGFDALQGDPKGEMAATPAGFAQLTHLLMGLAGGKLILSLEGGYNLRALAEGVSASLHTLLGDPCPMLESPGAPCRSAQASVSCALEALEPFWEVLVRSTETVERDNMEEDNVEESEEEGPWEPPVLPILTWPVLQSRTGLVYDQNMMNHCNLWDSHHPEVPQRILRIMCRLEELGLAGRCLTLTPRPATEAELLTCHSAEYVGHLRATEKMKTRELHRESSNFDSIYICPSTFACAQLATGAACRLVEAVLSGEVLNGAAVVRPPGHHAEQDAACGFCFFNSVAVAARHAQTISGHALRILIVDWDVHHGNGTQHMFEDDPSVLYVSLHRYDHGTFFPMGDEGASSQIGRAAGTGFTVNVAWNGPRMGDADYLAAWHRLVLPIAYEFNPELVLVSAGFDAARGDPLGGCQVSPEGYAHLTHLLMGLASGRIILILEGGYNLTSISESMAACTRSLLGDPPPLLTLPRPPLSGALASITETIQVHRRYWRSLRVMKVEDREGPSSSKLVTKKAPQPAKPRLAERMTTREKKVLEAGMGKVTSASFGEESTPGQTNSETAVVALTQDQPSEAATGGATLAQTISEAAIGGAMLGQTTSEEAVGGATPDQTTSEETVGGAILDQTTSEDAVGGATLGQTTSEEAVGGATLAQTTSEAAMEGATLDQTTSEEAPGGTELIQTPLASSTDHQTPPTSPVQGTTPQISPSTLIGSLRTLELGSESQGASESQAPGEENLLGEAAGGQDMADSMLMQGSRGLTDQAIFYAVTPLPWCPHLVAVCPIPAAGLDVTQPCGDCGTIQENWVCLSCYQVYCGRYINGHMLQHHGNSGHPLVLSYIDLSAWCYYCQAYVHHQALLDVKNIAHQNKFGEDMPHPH

[5] = Drug uptake in human MDA-MB-231 cells assessed as decrease in fluorescence intensity at 25 uM for 1 to 24 hrs by fluorescence imaging analysis; format: ADME, cell-based; details: mda-mb-231, 25 µM, time 1-24 hrs
[6] = Drug uptake in human MDA-MB-231 cells assessed as increased fluorescence intensity at 5 uM for 1 to 24 hrs by fluorescence imaging analysis; format: ADME, cell-based; details: mda-mb-231, 25 µM, time 1-24 hrs
[7] = Drug uptake in human Hela cells assessed as increased fluorescence intensity at 5 to 25 uM for 1 to 24 hrs by fluorescence imaging analysis; format: ADME, cell-based; details: dose 1-25 µM, time 1-24 hrs
MDA-MB-231 = test: Antiproliferation activity against human MDA-MB-231 cells assessed as reduction in cell viability incubated for 72 hrs by MTT assay; format: functional, cell-based
HeLa = test: Antiproliferation activity against human Hela cells assessed as reduction in cell viability incubated for 72 hrs by MTT assay; format: functional, cell-based
[8] = Chemical stability of compound in PBS buffer assessed as drug degradation at 37 degree C; format: physicochemical

Row | Activity [1] [nm] | Activity [2] [nm] | Activity [3] | IC50 (Histone deacetylase 1) [µM] | IC50 (Histone deacetylase 3) [µM] | IC50 [4] [µM] | Drug uptake [5] | Drug uptake [6] | Drug uptake [7] | Stabilty [8] | IC50 (MDA-MB-231; MDA-MB-231, 72 h) [µM] | IC50 (HeLa) [µM] | Structure (SMILES) | Activity (MDA-MB-231) | Activity (HeLa)
1 | 707 | 723 | Not Active | 9.69 | 11 | 13.8 | Active | Not Active | Not Active |  |  |  | CC[N+]1=C(/C=C/C2=C3Oc4cc(O)cc(OCCCCCCCC(=O)O)c4C=C3CCC2)C(C)(C)c2ccccc21.[I-] | inactive | inactive
2 | 707 | 723 | Not Active | 0.36 | 0.57 | 0.19 | Active | Active | Active | Stable | 9.2 | 5.91 | CC[N+]1=C(/C=C/C2=C3Oc4cc(O)cc(OCCCCCCCC(=O)NO)c4C=C3CCC2)C(C)(C)c2ccccc21.[I-] |  | 
